From ChEMBL document CHEMBL4002566, “S-substituted 3,5-dinitrophenyl 1,3,4-oxadiazole-2-thiols and tetrazole-5-thiols as highly efficient antitubercular agents” (Eur J Med Chem, 2017)
≈ marks a conversion by molar mass, not a printed value.

Experiments:
[1] = Selectivity index, ratio of IC50 for human HepG2 cells to MIC for Mycobacterium tuberculosis; format: toxicity; conditions: read-out: Selectivity Index
[2] = Cytotoxicity against human HepG2 cells assessed as cell viability at 30 uM after 48 hrs by MTS assay relative to control; format: cell-based; conditions: read-out: Activity
Mycobacterium kansasii [3] = assay: Antimycobacterial activity against Mycobacterium kansasii CNCTC My 235/80 after 7 days by micromethod; format: functional; conditions: CNCTC My 235/80, 168 h
HepG2 = assay: Cytotoxicity against human HepG2 cells assessed as cell viability after 48 hrs by MTS assay; format: cell-based; conditions: HepG2, 48 h
MDCK = assay: Cytotoxicity against MDCK cells assessed as cell viability after 48 hrs by MTS assay; format: cell-based; conditions: Canis lupus familiaris
Mycobacterium avium [4] = assay: Antimycobacterial activity against Mycobacterium avium CNCTC My 330/88 after 21 days by micromethod; format: functional; conditions: CNCTC My 330/88, 504 h
[5] = test system: Mycobacterium tuberculosis; assay: Antimycobacterial activity against Mycobacterium tuberculosis CNCTC My 331/88 after 21 days by micromethod; format: functional; conditions: CNCTC My 331/88, 504 h
[6] = Cytotoxicity against human A431 cells assessed as cell viability at 30 uM after 48 hrs by MTS assay relative to control; format: cell-based, A-431; conditions: read-out: Activity
Mycobacterium kansasii [7] = assay: Antimycobacterial activity against Mycobacterium kansasii 6509/96 clinical isolate after 7 days by micromethod; format: functional; conditions: 6509/96, 168 h
Mycobacterium avium [8] = assay: Antimycobacterial activity against Mycobacterium avium CNCTC My 330/88 after 14 days by micromethod; format: functional; conditions: CNCTC My 330/88, 336 h
Mycobacterium kansasii [9] = assay: Antimycobacterial activity against Mycobacterium kansasii 6509/96 clinical isolate after 14 days by micromethod; format: functional; conditions: 6509/96, 336 h
Huh-7 = assay: Cytotoxicity against human HuH7 cells assessed as cell viability after 48 hrs by MTS assay; format: cell-based; conditions: Huh-7, 48 h
[10] = test system: Mycobacterium tuberculosis; assay: Antimycobacterial activity against Mycobacterium tuberculosis CNCTC My 331/88 after 14 days by micromethod; format: functional; conditions: CNCTC My 331/88, 336 h
Mycobacterium kansasii [11] = assay: Antimycobacterial activity against Mycobacterium kansasii CNCTC My 235/80 after 21 days by micromethod; format: functional; conditions: CNCTC My 235/80, 504 h
A-431 = assay: Cytotoxicity against human A431 cells assessed as cell viability after 48 hrs by MTS assay; format: cell-based; conditions: A-431, 48 h
[12] = Cytotoxicity against MDCK cells assessed as cell viability at 30 uM after 48 hrs by MTS assay relative to control; format: cell-based, Canis lupus familiaris; conditions: dog, read-out: Activity
Mycobacterium kansasii [13] = assay: Antimycobacterial activity against Mycobacterium kansasii CNCTC My 235/80 after 14 days by micromethod; format: functional; conditions: CNCTC My 235/80, 336 h
[14] = Cytotoxicity against human HuH7 cells assessed as cell viability at 30 uM after 48 hrs by MTS assay relative to control; format: cell-based, Huh-7; conditions: read-out: Activity
Mycobacterium kansasii [15] = assay: Antimycobacterial activity against Mycobacterium kansasii 6509/96 clinical isolate after 21 days by micromethod; format: functional; conditions: 6509/96, 504 h
Escherichia coli [16] = assay: Antibacterial activity against Escherichia coli ATCC 8739 after 48 hrs by broth microdilution method; format: functional; conditions: ATCC 8739, 48 h
Klebsiella pneumoniae [17] = assay: Antibacterial activity against extended spectrum beta-lactamase producing Klebsiella pneumoniae HK14368/08 after 24 hrs by broth microdilution method; format: functional; conditions: HK14368/08, 24 h
Aspergillus fumigatus [18] = assay: Antifungal activity against Aspergillus fumigatus 231 after 24 hrs by broth microdilution method; format: functional; conditions: Aspergillus fumigatus, 231, 24 h
Nakaseomyces glabratus [19] = assay: Antifungal activity against Candida glabrata 20/I after 24 hrs by broth microdilution method; format: functional
Escherichia coli [20] = assay: Antibacterial activity against Escherichia coli ATCC 8739 after 24 hrs by broth microdilution method; format: functional; conditions: ATCC 8739, 24 h
[21] = test system: Trichophyton mentagrophytes; assay: Antifungal activity against Trichophyton mentagrophytes 445 after 120 hrs by broth microdilution method; format: functional; conditions: Trichophyton mentagrophytes, 445, 120 h
[22] = test system: Staphylococcus epidermidis; assay: Antibacterial activity against Staphylococcus epidermidis HK6996/08 after 48 hrs by broth microdilution method; format: functional; conditions: HK6996/08, 48 h
Staphylococcus aureus [23] = assay: Antibacterial activity against Staphylococcus aureus ATCC 6538 after 48 hrs by broth microdilution method; format: functional; conditions: ATCC 6538, 48 h
Lichtheimia corymbifera [24] = assay: Antifungal activity against Absidia corymbifera 272 after 24 hrs by broth microdilution method; format: functional; conditions: Lichtheimia corymbifera, 272, 24 h
[25] = test system: Trichophyton mentagrophytes; assay: Antifungal activity against Trichophyton mentagrophytes 445 after 72 hrs by broth microdilution method; format: functional; conditions: Trichophyton mentagrophytes, 445, 72 h
Candida albicans [26] = assay: Antifungal activity against Candida albicans ATCC 44859 after 48 hrs by broth microdilution method; format: functional; conditions: ATCC 44859, 48 h
Enterococcus sp. [27] = assay: Antibacterial activity against Enterococcus sp. HK14365/08 after 48 hrs by broth microdilution method; format: functional; conditions: HK14365/08, 48 h
Staphylococcus aureus [28] = assay: Antibacterial activity against methicillin-resistant Staphylococcus aureus HK5996/08 after 48 hrs by broth microdilution method; format: functional; conditions: HK5996/08, 48 h
Trichosporon asahii [29] = assay: Antifungal activity against Trichosporon asahii 1188 after 24 hrs by broth microdilution method; format: functional; conditions: Trichosporon asahii, 1188, 24 h
Candida tropicalis [30] = assay: Antifungal activity against Candida tropicalis 156 after 48 hrs by broth microdilution method; format: functional; conditions: Candida tropicalis, 156, 48 h
Pichia kudriavzevii [31] = assay: Antifungal activity against Candida krusei E28 after 24 hrs by broth microdilution method; format: functional; conditions: E28, 24 h
Nakaseomyces glabratus [32] = assay: Antifungal activity against Candida glabrata 20/I after 48 hrs by broth microdilution method; format: functional
Klebsiella pneumoniae [33] = assay: Antibacterial activity against Klebsiella pneumoniae HK11750/08 after 48 hrs by broth microdilution method; format: functional; conditions: HK11750/08, 48 h
Lichtheimia corymbifera [34] = assay: Antifungal activity against Absidia corymbifera 272 after 48 hrs by broth microdilution method; format: functional; conditions: Lichtheimia corymbifera, 272, 48 h
Staphylococcus aureus [35] = assay: Antibacterial activity against methicillin-resistant Staphylococcus aureus HK5996/08 after 24 hrs by broth microdilution method; format: functional; conditions: HK5996/08, 24 h
Pseudomonas aeruginosa [36] = assay: Antibacterial activity against Pseudomonas aeruginosa ATCC 9027 after 24 hrs by broth microdilution method; format: functional; conditions: ATCC 9027, 24 h
Enterococcus sp. [37] = assay: Antibacterial activity against Enterococcus sp. HK14365/08 after 24 hrs by broth microdilution method; format: functional; conditions: HK14365/08, 24 h
Pichia kudriavzevii [38] = assay: Antifungal activity against Candida krusei E28 after 48 hrs by broth microdilution method; format: functional; conditions: E28, 48 h
Candida tropicalis [39] = assay: Antifungal activity against Candida tropicalis 156 after 24 hrs by broth microdilution method; format: functional; conditions: Candida tropicalis, 156, 24 h
Pseudomonas aeruginosa [40] = assay: Antibacterial activity against Pseudomonas aeruginosa ATCC 9027 after 48 hrs by broth microdilution method; format: functional; conditions: ATCC 9027, 48 h
[41] = test system: Staphylococcus epidermidis; assay: Antibacterial activity against Staphylococcus epidermidis HK6996/08 after 24 hrs by broth microdilution method; format: functional; conditions: HK6996/08, 24 h
Klebsiella pneumoniae [42] = assay: Antibacterial activity against extended spectrum beta-lactamase producing Klebsiella pneumoniae HK14368/08 after 48 hrs by broth microdilution method; format: functional; conditions: HK14368/08, 48 h
Trichosporon asahii [43] = assay: Antifungal activity against Trichosporon asahii 1188 after 48 hrs by broth microdilution method; format: functional; conditions: Trichosporon asahii, 1188, 48 h
Aspergillus fumigatus [44] = assay: Antifungal activity against Aspergillus fumigatus 231 after 48 hrs by broth microdilution method; format: functional; conditions: Aspergillus fumigatus, 231, 48 h
Candida albicans [45] = assay: Antifungal activity against Candida albicans ATCC 44859 after 24 hrs by broth microdilution method; format: functional; conditions: ATCC 44859, 24 h
Staphylococcus aureus [46] = assay: Antibacterial activity against Staphylococcus aureus ATCC 6538 after 24 hrs by broth microdilution method; format: functional; conditions: ATCC 6538, 24 h
Klebsiella pneumoniae [47] = assay: Antibacterial activity against Klebsiella pneumoniae HK11750/08 after 24 hrs by broth microdilution method; format: functional; conditions: HK11750/08, 24 h

## O=[N+]([O-])c1cc(-c2nnc(SCc3cccc(Cl)c3)o2)cc([N+](=O)[O-])c1
[1]
  selectivity ratio: > 1000
[2]
  viability at 48 h, 30 µM: 129%
Mycobacterium kansasii [3]
  MIC: 0.06 µM (≈ 0.0236 µg/mL)
HepG2
  IC50: > 30 µM
MDCK
  IC50: > 30 µM
Mycobacterium avium [4]
  MIC: 8 µM (≈ 3.14 µg/mL)
[5]
  MIC: 0.06 µM (≈ 0.0236 µg/mL)
[6]
  viability at 48 h, 30 µM: 105%
Mycobacterium kansasii [7]
  MIC: 0.03 µM (≈ 0.0118 µg/mL)
Mycobacterium avium [8]
  MIC: 4 µM (≈ 1.57 µg/mL)
Mycobacterium kansasii [9]
  MIC: 0.06 µM (≈ 0.0236 µg/mL)
Huh-7
  IC50: > 30 µM
[10]
  MIC: 0.03 µM (≈ 0.0118 µg/mL)
Mycobacterium kansasii [11]
  MIC: 0.06 µM (≈ 0.0236 µg/mL)
A-431
  IC50: > 30 µM
[12]
  viability at 48 h, 30 µM: 105%
Mycobacterium kansasii [13]
  MIC: 0.06 µM (≈ 0.0236 µg/mL)
[14]
  viability at 48 h, 30 µM: 158%
Mycobacterium kansasii [15]
  MIC: 0.06 µM (≈ 0.0236 µg/mL)

## O=[N+]([O-])c1cc(-n2nnnc2SCc2ccc(Cl)cc2)cc([N+](=O)[O-])c1
Escherichia coli [16]
  MIC: > 500 µM
Klebsiella pneumoniae [17]
  MIC: > 500 µM
Aspergillus fumigatus [18]
  MIC: > 500 µM
Nakaseomyces glabratus [19]
  MIC: > 500 µM
[1]
  selectivity ratio: > 60
Escherichia coli [20]
  MIC: > 500 µM
[2]
  viability at 48 h, 30 µM: 134%
[21]
  MIC: > 500 µM
[22]
  MIC: 500 µM (≈ 196 µg/mL)
Mycobacterium kansasii [3]
  MIC: 1 µM (≈ 0.393 µg/mL)
HepG2
  IC50: > 30 µM
Staphylococcus aureus [23]
  MIC: 125 µM (≈ 49.1 µg/mL)
Lichtheimia corymbifera [24]
  MIC: > 500 µM
MDCK
  IC50: > 30 µM
[25]
  MIC: > 500 µM
Candida albicans [26]
  MIC: > 500 µM
Enterococcus sp. [27]
  MIC: > 500 µM
Staphylococcus aureus [28]
  MIC: 125 µM (≈ 49.1 µg/mL)
Trichosporon asahii [29]
  MIC: > 500 µM
Mycobacterium avium [4]
  MIC: 16 µM (≈ 6.28 µg/mL)
Candida tropicalis [30]
  MIC: > 500 µM
Pichia kudriavzevii [31]
  MIC: > 500 µM
[5]
  MIC: 0.5 µM (≈ 0.196 µg/mL)
Nakaseomyces glabratus [32]
  MIC: > 500 µM
[6]
  viability at 48 h, 30 µM: 74%
Mycobacterium kansasii [7]
  MIC: 0.5 µM (≈ 0.196 µg/mL)
Klebsiella pneumoniae [33]
  MIC: > 500 µM
Mycobacterium avium [8]
  MIC: 8 µM (≈ 3.14 µg/mL)
Mycobacterium kansasii [9]
  MIC: 1 µM (≈ 0.393 µg/mL)
Huh-7
  IC50: > 30 µM
Lichtheimia corymbifera [34]
  MIC: > 500 µM
Staphylococcus aureus [35]
  MIC: 125 µM (≈ 49.1 µg/mL)
Pseudomonas aeruginosa [36]
  MIC: > 500 µM
[10]
  MIC: 0.5 µM (≈ 0.196 µg/mL)
Mycobacterium kansasii [11]
  MIC: 4 µM (≈ 1.57 µg/mL)
A-431
  IC50: > 30 µM
Enterococcus sp. [37]
  MIC: > 500 µM
Pichia kudriavzevii [38]
  MIC: > 500 µM
Candida tropicalis [39]
  MIC: > 500 µM
Pseudomonas aeruginosa [40]
  MIC: > 500 µM
[41]
  MIC: 500 µM (≈ 196 µg/mL)
Klebsiella pneumoniae [42]
  MIC: > 500 µM
Trichosporon asahii [43]
  MIC: > 500 µM
Aspergillus fumigatus [44]
  MIC: > 500 µM
[12]
  viability at 48 h, 30 µM: 85%
Candida albicans [45]
  MIC: > 500 µM
Mycobacterium kansasii [13]
  MIC: 2 µM (≈ 0.786 µg/mL)
[14]
  viability at 48 h, 30 µM: 115%
Staphylococcus aureus [46]
  MIC: 125 µM (≈ 49.1 µg/mL)
Mycobacterium kansasii [15]
  MIC: 1 µM (≈ 0.393 µg/mL)
Klebsiella pneumoniae [47]
  MIC: > 500 µM

## CN[C@H](CC(C)C)C(=O)N[C@H]1C(=O)N[C@@H](CC(N)=O)C(=O)N[C@H]2C(=O)N[C@H]3C(=O)N[C@H](C(=O)N[C@H](C(=O)O)c4cc(O)cc(O)c4-c4cc3ccc4O)[C@H](O)c3ccc(c(Cl)c3)Oc3cc2cc(c3O[C@@H]2O[C@H](CO)[C@@H](O)[C@H](O)[C@H]2O[C@H]2C[C@](C)(N)[C@H](O)[C@H](C)O2)Oc2ccc(cc2Cl)[C@H]1O [VANCOMYCIN]
Staphylococcus aureus [35]
  MIC: 0.35 µM (≈ 0.507 µg/mL)
Enterococcus sp. [37]
  MIC: 0.7 µM (≈ 1.01 µg/mL)
[41]
  MIC: 0.35 µM (≈ 0.507 µg/mL)
Staphylococcus aureus [46]
  MIC: 0.35 µM (≈ 0.507 µg/mL)
